Laboratory results taken from patent publication US5453533A (priority 1994, dated 1995).
Entries after “also recorded” stand apart in the source; their conditions may differ. Read-outs that look alike come from different tables or passages of the source.

Experiments:
[1] = target: T1, type B (B/Memphis/3/89) neuraminidase (Influenza B virus (B/Memphis/3/89), UniProt P16199); type: biochemical; settings: read-out: IC50, MUN substrate, B/Mem/89
[2] = target: T1, type B (B/Memphis/3/89) neuraminidase; type: biochemical; settings: read-out: IC50, Fetuin substrate, B/Mem/89
[3] = target: T2, N2 (A/Tokyo/67) neuraminidase (Influenza A virus, UniProt P06820); experiment: biochemical; design: species or system influenza A virus (A/Tokyo/67)
[4] = tested on: influenza NA; type: biochemical, influenza virus type A or type B
[5] = target: T2, N2 (A/Tokyo/67) neuraminidase; experiment: biochemical; design: species or system influenza A virus (A/Tokyo/67); remark: listed apart in the source
[6] = target: N2 (Influenza A virus (A/Tokyo/3/1967(H2N2)), UniProt P06820); type: binding
[7] = target: influenza neuraminidase; settings: cited from earlier work
[8] = target: influenza A neuramidase; settings: Taylor & von Itzstein, 1994; cited from earlier work
[9] = tested on: influenza B; settings: cited from earlier work
[10] = tested on: influenza subtype A; settings: cited from earlier work
[11] = tested on: Influenza NA; settings: trisaccharide substrate; cited from earlier work
[12] = whole virus, 50% inhibition of NA activity, MUN, 15 minutes at 37° C, pH 6.0

T1 sequence (P16199 whole entry, looked up): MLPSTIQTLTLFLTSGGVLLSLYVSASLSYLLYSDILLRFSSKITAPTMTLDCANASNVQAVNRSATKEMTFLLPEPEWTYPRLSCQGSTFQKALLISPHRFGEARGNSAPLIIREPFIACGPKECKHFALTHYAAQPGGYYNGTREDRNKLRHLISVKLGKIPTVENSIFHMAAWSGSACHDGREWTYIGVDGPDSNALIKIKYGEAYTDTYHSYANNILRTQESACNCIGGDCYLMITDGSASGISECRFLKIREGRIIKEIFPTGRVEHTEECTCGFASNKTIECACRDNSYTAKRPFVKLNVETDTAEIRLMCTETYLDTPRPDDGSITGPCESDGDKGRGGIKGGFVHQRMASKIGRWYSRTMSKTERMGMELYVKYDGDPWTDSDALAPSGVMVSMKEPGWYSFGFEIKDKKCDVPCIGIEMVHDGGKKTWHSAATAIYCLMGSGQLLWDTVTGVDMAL
Sequence of N2 (Influenza A virus (A/Tokyo/3/1967(H2N2)), UniProt P06820) (P06820 whole entry, looked up): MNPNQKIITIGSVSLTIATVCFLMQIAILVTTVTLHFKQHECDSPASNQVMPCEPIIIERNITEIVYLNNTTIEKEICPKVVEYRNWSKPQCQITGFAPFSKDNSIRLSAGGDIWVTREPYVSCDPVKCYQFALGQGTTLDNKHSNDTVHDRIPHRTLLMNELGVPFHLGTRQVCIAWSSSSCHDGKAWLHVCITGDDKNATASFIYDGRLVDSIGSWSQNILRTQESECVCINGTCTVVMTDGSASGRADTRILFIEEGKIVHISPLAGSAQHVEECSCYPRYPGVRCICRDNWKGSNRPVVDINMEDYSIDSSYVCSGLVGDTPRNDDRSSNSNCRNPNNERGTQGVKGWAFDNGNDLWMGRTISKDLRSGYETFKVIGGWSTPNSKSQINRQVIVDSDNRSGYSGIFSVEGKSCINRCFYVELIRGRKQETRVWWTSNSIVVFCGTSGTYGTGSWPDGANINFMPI
T2 sequence (P06820 whole entry, looked up): as above

Compound	IC50 ([1]; pH 6) [mM]	IC50 [2] [mM]	IC50 [3] [mM]	IC50 [5] [mM]	other results
CC(=O)Nc1ccc(C(=O)O)cc1O [Compound 101, 4-(acetylamino)-3-hydroxybenzoic acid]	> 10	10	> 10	10	Change in activity from nitro group alone or phenol OH alone [4]: did not result in significant changes in activity
CC(=O)Nc1ccc(C(=O)O)cc1OC(C)=O [Compound 102, 4-(acetylamino)-3-acetoxybenzoic acid]	> 10	5	> 10	10	
CC(=O)Nc1cc([N+](=O)[O-])c(C(=O)O)c([N+](=O)[O-])c1O [Compound 103, 4-(acetylamino)-3-hydroxy-2,6-dinitrobenzoic acid]	1	4			
CC(=O)Nc1c(OC(C)=O)cc(C(=O)O)cc1[N+](=O)[O-] [Compound 104, 3-acetoxy-4-(acetylamino)-5-nitrobenzoic acid]	2	5			
CC(=O)Nc1c(O)cc(C(=O)O)cc1[N+](=O)[O-] [Compound 105, 4-(acetylamino)-3-hydroxy-5-nitrobenzoic acid]	0.75	1			binding to N2 [6]: binds strongest to N2; Activity compared with sialic acid [4]: significantly more potent than sialic acid; also recorded: enhanced activity
CC(=O)Nc1c(N)cc(C(=O)O)cc1O.Cl [Compound 106, 3-amino-4-(acetylamino)-5-hydroxybenzoic acid, hydrochloride]	10	> 10	> 10	> 10	binding to N2 [6]: bind fairly well
CC(=O)Nc1ccc(C(=O)O)cc1[N+](=O)[O-] [Compound 107]			5	5	IC50 [1, 12]: 5 mM; IC50 ([2]; whole virus, 50% inhibition of NA activity, fetuin): 5 mM; Change in activity from nitro group alone or phenol OH alone [4]: did not result in significant changes in activity
CC(=O)Nc1ccc(C(=O)O)cc1N [Compound 108, 4-(acetylamino)-3-aminobenzoic acid]	> 20		> 10	> 10	binding to N2 [6]: binds the weakest to N2
CC(=O)Nc1ccc(C(=O)O)cc1NC(=O)CO [Compound 109, 4-(acetylamino)-3-[(hydroxyacetyl)amino]benzoic acid]	3	10	4	> 10	
CC(=O)Nc1ccc(C(=O)O)cc1NC(=O)C(O)CO (stereo not shown) [Compound 110, 4-(acetylamino)-3-[(2,3-dihydroxypropionyl)amino]benzoic acid]	8	> 10			
CC(=O)Nc1ccc(C(=O)O)cc1NC(=O)CN [Compound 111, 4-(acetylamino)-3-[(aminoacetyl)amino]benzoic acid]		5	5		
CC(=O)Nc1ccc(C(=O)O)cc1NC(=O)CCCN [Compound 112, 4-(acetylamino)-3-[(4-aminobutanoyl)amino]benzoic acid]	> 10	> 10	> 10	> 10	
CC(=O)N[C@H]1[C@H]([C@H](O)[C@H](O)CO)OC(C(=O)O)=C[C@@H]1O [DANA, 2-deoxy-2,3-dehydro-N-acetylneuraminic acid, reference compound]	0.015	0.015	0.015	0.015	Ki ([7]; in vitro, influenza neuraminidase): 0.01 mM; Ki [8]: 0.004 mM
O=C(O)C1=C[C@H](O)[C@@H](NC(=O)C(F)(F)F)[C@H]([C@H](O)[C@H](O)CO)O1 [FANA, 2-deoxy-2,3-dehydro-N-(trifiuoroacetyl)neuraminic acid]					in vitro activity compared with DANA ([7]; Palese and Compans, 1976): greater in vitro activity
NC12CC3CC(CC(C3)C1)C2 [amantadine]					effect on influenza B [9]: no effect on influenza B; effect against influenza A [10]: effective only against influenza subtype A
CC(N)C12CC3CC(CC(C3)C1)C2 (stereo not shown) [rimantadine]					effect on influenza B [9]: no effect on influenza B; effect against influenza A [10]: effective only against influenza subtype A
CC(=O)N[C@H]1[C@H]([C@H](O)[C@H](O)CO)OC(O)(C(=O)O)C[C@@H]1O (stereo partly shown) [sialic acid, N-acetylneuraminic acid, reference compound]					IC50 [1, 12]: > 10 mM; Ki [7]: ~1 mM; IC50 ([4]; whole virus screen, MUN and fetuin, read-out: IC50 (modest product inhibitor)): 10 mM
N-acetyl neuraminyl lactose					Km [11]: ~400 µM
